Results reported in patent US20230295197A1, “STAT5 and STAT6 Degraders and Uses Thereof” (REGENTS OF THE UNIVERSITY OF MICHICAN, priority 2022, published 2023).
Like-named read-outs stand apart in the source and are kept apart here.

Molecular target: T1, STAT6 (Homo sapiens, UniProt P42226)
T1 construct: endogenous in cells; host or cells: MOLM-16, KU-812, SKNO1, MB231, L1236
T1 sequence (P42226 1-847): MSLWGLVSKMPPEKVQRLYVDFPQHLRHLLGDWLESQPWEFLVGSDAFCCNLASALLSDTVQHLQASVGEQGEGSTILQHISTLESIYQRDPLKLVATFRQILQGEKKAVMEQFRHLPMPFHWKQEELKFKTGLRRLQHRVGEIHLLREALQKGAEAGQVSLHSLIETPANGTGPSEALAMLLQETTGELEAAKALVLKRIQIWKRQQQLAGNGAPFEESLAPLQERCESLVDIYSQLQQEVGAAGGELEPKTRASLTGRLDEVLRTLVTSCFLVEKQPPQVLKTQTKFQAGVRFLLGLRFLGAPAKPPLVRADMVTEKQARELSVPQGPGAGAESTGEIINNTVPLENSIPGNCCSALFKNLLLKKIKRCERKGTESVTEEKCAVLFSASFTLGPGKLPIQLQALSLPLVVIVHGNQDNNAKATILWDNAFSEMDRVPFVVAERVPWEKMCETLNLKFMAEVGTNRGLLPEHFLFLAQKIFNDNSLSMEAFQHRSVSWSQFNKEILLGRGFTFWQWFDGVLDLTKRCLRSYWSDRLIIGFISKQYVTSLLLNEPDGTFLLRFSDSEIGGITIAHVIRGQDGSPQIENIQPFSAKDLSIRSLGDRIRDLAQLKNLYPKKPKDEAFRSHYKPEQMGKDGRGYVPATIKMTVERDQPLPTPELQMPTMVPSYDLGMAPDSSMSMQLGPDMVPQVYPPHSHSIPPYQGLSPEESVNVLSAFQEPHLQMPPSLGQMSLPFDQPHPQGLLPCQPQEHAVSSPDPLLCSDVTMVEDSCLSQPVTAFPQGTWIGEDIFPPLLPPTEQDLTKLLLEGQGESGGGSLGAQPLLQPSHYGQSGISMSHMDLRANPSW
Experiment: Immunoblotting (Western blot) analysis of STAT6 degradation efficiency of degraders in treated cells
Assay type: cell-based
Method in brief: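 Read-out: fluorescent IRDye 680RD/800CW secondaries imaged on an infrared scanner, with band intensities quantified by densitometry and GAPDH serving as loading control. Samples were RIPA lysates, BCA-normalised, from ~1 million treated cells.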

[1] = MOLM-16 cells, class symbols, read-out: DC50 S6 MOLM-16
[2] = L1236 cells, read-out: DC50 S6 L1236

| SMILES | DC50 [1] [µM] | DC50 [2] [µM] | further results |
| --- | --- | --- | --- |
| CC(C)(C)[C@H](NC(=O)c1cc2cc(C(F)(F)P(=O)(O)O)ccc2s1)C(=O)N1C[C@@H](OCC(=O)NCCCCCCCCCC#Cc2cccc3c2C(=O)N(C2CCC(=O)NC2=O)C3=O)C[C@H]1C(=O)N1CCO[C@H](c2ccccc2)C1 (stereo partly drawn) [Compound 491, ((2-(((2S)-1-((2S,4S)-4-(2-((11-(2-(2,6-dioxopiperidin-3-yl)-1,3-dioxoisoindolin-4-yl)undec-10-yn-1-yl)amino)-2-oxoethoxy)-2-((R)-2-phenylmorpholine-4-carbonyl)pyrrolidin-1-yl)-3,3-dimethyl-1-oxobutan-2-yl)carbamoyl)benzo[b]thiophen-5-yl)difluoromethyl)phosphonic acid] | > 10 | – | – |
| CC(C)(C)[C@H](NC(=O)c1cc2cc(C(F)(F)P(=O)(O)O)ccc2s1)C(=O)N1Cc2cc(OCC(=O)NCC#Cc3cccc4c3C(=O)N(C3CCC(=O)NC3=O)C4=O)ccc2C[C@H]1C(=O)N1CCO[C@H](c2ccccc2)C1 (stereo partly drawn) [Compound 535, ((2-(((2S)-1-((3S)-7-(2-((3-(2-(2,6-dioxopiperidin-3-yl)-1,3-dioxoisoindolin-4-yl)prop-2-yn-1-yl)amino)-2-oxoethoxy)-3-((R)-2-phenylmorpholine-4-carbonyl)-3,4-dihydroisoquinolin-2(1H)-yl)-3,3-dimethyl-1-oxobutan-2-yl)carbamoyl)benzo[b]thiophen-5-yl)difluoromethyl)phosphonic acid] | 0.1 to 1 | – | – |
| Cc1cc([C@H](C(=O)N2C[C@H](O)C[C@H]2C(=O)N[C@@H](CC(=O)NCCOCCOCCOCCNC(=O)CCN(C(=O)[C@@H]2CCCN2C(=O)[C@@H](NC(=O)c2cc3cc(C(F)(F)P(=O)(O)O)ccc3s2)C(C)(C)C)c2ccc(Br)cc2)c2ccc(-c3scnc3C)cc2)C(C)C)on1 [Compound 409, ((2-(((S)-1-((S)-2-((4-bromophenyl)((S)-1-((2S,4R)-4-hydroxy-1-((R)-3-methyl-2-(3-methylisoxazol-5-yl)butanoyl)pyrrolidin-2-yl)-3-(4-(4-methylthiazol-5-yl)phenyl)-1,5,19-trioxo-9,12,15-trioxa-2,6,18-triazahenicosan-21-yl)carbamoyl)pyrrolidin-1-yl)-3,3-dimethyl-1-oxobutan-2-yl)carbamoyl)benzo[b]thiophen-5-yl)difluoromethyl)phosphonic acid] | – | – | DC50 (MB231 cells, read-out: DC50 S6 MB231): > 10 µM |
| CC(C)(C)c1ccc(C[C@H](NC(=O)c2cc3cc(C(F)(F)P(=O)(O)O)ccc3s2)C(=O)N2C[C@@H](OCCCCCC(=O)N3Cc4cc5c(cc4C3)C(=O)N(C3CCC(=O)NC3=O)C5)C[C@H]2C(=O)N2CCO[C@H](c3ccccc3)C2)cc1 (stereo partly drawn) [Compound 591, ((2-(((2S)-3-(4-(tert-butyl)phenyl)-1-((2S,4S)-4-((6-(6-(2,6-dioxopiperidin-3-yl)-5-oxo-3,5,6,7-tetrahydropyrrolo[3,4-f]isoindol-2(1H)-yl)-6-oxohexyl)oxy)-2-((R)-2-phenylmorpholine-4-carbonyl)pyrrolidin-1-yl)-1-oxopropan-2-yl)carbamoyl)benzo[b]thiophen-5-yl)difluoromethyl)phosphonic acid] | > 10 | – | – |
| CC(C)(C)[C@H](NC(=O)c1cc2cc(C(F)(F)P(=O)(O)O)ccc2s1)C(=O)N1C[C@@H](OCCN2CCC(Nc3cccc4c3CN(C3CCC(=O)NC3=O)C4=O)CC2)C[C@H]1C(=O)N1CCO[C@H](c2ccccc2)C1 (stereo partly drawn) [Compound 605, ((2-(((2S)-1-((2S,4S)-4-(2-(4-((2-(2,6-dioxopiperidin-3-yl)-1-oxoisoindolin-4-yl)amino)piperidin-1-yl)ethoxy)-2-((R)-2-phenylmorpholine-4-carbonyl)pyrrolidin-1-yl)-3,3-dimethyl-1-oxobutan-2-yl)carbamoyl)benzo[b]thiophen-5-yl)difluoromethyl)phosphonic acid] | – | – | DC50 (MOLM-16 cells, numeric bound, read-out: DC50 S6 MOLM-16): > 0.3 µM |
| Cc1ncsc1-c1ccc([C@H](C)NC(=O)[C@@H]2C[C@@H](O)CN2C(=O)[C@@H](NC(=O)CCCCCNC(=O)CO[C@H]2C[C@@H](C(=O)N3CCO[C@H](c4ccccc4)C3)N(C(=O)[C@@H](NC(=O)c3cc4cc(C(F)(F)P(=O)(O)O)ccc4s3)C(C)(C)C)C2)C(C)(C)C)cc1 [Compound 429, (difluoro(2-(((S)-1-((2S,4S)-4-(2-((6-(((S)-1-((2S,4R)-4-hydroxy-2-(((S)-1-(4-(4-methylthiazol-5-yl)phenyl)ethyl)carbamoyl)pyrrolidin-1-yl)-3,3-dimethyl-1-oxobutan-2-yl)amino)-6-oxohexyl)amino)-2-oxoethoxy)-2-((R)-2-phenylmorpholine-4-carbonyl)pyrrolidin-1-yl)-3,3-dimethyl-1-oxobutan-2-yl)carbamoyl)benzo[b]thiophen-5-yl)methyl)phosphonic acid] | > 10 | > 10 | – |
| Cc1ncsc1-c1ccc([C@H](CC(=O)NCCCCCCCC(=O)N[C@H]2C[C@@H](C(=O)N3CCO[C@H](c4ccccc4)C3)N(C(=O)[C@@H](NC(=O)c3cc4cc(C(F)(F)P(=O)(O)O)ccc4s3)C(C)(C)C)C2)NC(=O)[C@@H]2C[C@@H](O)CN2C(=O)[C@@H](NC(=O)C2(F)CC2)C(C)(C)C)cc1 [Compound 570, (difluoro(2-(((S)-1-((2S,4S)-4-(8-((S)-3-((2S,4R)-1-((S)-2-(1-fluorocyclopropane-1-carboxamido)-3,3-dimethylbutanoyl)-4-hydroxypyrrolidine-2-carboxamido)-3-(4-(4-methylthiazol-5-yl)phenyl)propanamido)octanamido)-2-((R)-2-phenylmorpholine-4-carbonyl)pyrrolidin-1-yl)-3,3-dimethyl-1-oxobutan-2-yl)carbamoyl)benzo[b]thiophen-5-yl)methyl)phosphonic acid] | > 10 | – | – |
| Cc1ncsc1-c1ccc([C@H](C)NC(=O)[C@@H]2C[C@@H](O)CN2C(=O)[C@@H](NC(=O)CCCCCCNC(=O)CC(=O)N2CCN(C(=O)[C@@H](NC(=O)c3cc4cc(C(F)(F)P(=O)(O)O)ccc4s3)C(C)(C)C)[C@H](C(=O)N3CCO[C@H](c4ccccc4)C3)C2)C(C)(C)C)cc1 [Compound 448, (difluoro(2-(((S)-1-((S)-4-(3-((7-(((S)-1-((2S,4R)-4-hydroxy-2-(((S)-1-(4-(4-methylthiazol-5-yl)phenyl)ethyl)carbamoyl)pyrrolidin-1-yl)-3,3-dimethyl-1-oxobutan-2-yl)amino)-7-oxoheptyl)amino)-3-oxopropanoyl)-2-((R)-2-phenylmorpholine-4-carbonyl)piperazin-1-yl)-3,3-dimethyl-1-oxobutan-2-yl)carbamoyl)benzo[b]thiophen-5-yl)methyl)phosphonic acid] | > 10 | > 10 | – |
| Cc1ncsc1-c1ccc([C@H](C)NC(=O)[C@@H]2C[C@@H](O)CN2C(=O)[C@@H](NC(=O)CCCCNC(=O)COc2ccc3c(c2)CN(C(=O)[C@@H](NC(=O)c2cc4cc(C(F)(F)P(=O)(O)O)ccc4s2)C(C)(C)C)[C@H](C(=O)N2CCO[C@H](c4ccccc4)C2)C3)C(C)(C)C)cc1 [Compound 464, (difluoro(2-(((S)-1-((S)-7-(2-((5-(((S)-1-((2S,4R)-4-hydroxy-2-(((S)-1-(4-(4-methylthiazol-5-yl)phenyl)ethyl)carbamoyl)pyrrolidin-1-yl)-3,3-dimethyl-1-oxobutan-2-yl)amino)-5-oxopentyl)amino)-2-oxoethoxy)-3-((R)-2-phenylmorpholine-4-carbonyl)-3,4-dihydroisoquinolin-2(1H)-yl)-3,3-dimethyl-1-oxobutan-2-yl)carbamoyl)benzo[b]thiophen-5-yl)methyl)phosphonic acid] | > 10 | > 10 | – |
| CC(C)(C)[C@H](NC(=O)c1cc2cc(C(F)(F)P(=O)(O)O)ccc2s1)C(=O)N1Cc2cc(OCC(=O)NCC#Cc3ccc4c(c3)C(=O)N(C3CCC(=O)NC3=O)C4=O)ccc2C[C@H]1C(=O)N1CCC[C@H](c2ccccc2)C1 (stereo partly drawn) [Compound 550, ((2-(((2S)-1-((3S)-7-(2-((3-(2-(2,6-dioxopiperidin-3-yl)-1,3-dioxoisoindolin-5-yl)prop-2-yn-1-yl)amino)-2-oxoethoxy)-3-((R)-3-phenylpiperidine-1-carbonyl)-3,4-dihydroisoquinolin-2(1H)-yl)-3,3-dimethyl-1-oxobutan-2-yl)carbamoyl)benzo[b]thiophen-5-yl)difluoromethyl)phosphonic acid] | > 10 | – | – |
